Assay results as given in patent publication US12281308B2, “Inhibition of protein kinases to treat Friedreich ataxia” (University of Massachusetts, priority 2018, dated 2025).

How the values were obtained:
mutant FXN gene = assay: Massively parallel short-read sequencing (RNA-seq) of FXN transcript levels in FRDA neurons; assay type: cell-based, human; details: vs DMSO, Illumina platform
ACO2 and ISCU [1] = assay: Immunoblot analysis of mitochondrial Fe-S proteins in FRDA neurons; assay type: cell-based, human; details: fasudil 1 μM, KD025 1 μM, ripasudil 0.5 μM
ACO2 and ISCU [2] = assay: Immunoblot analysis of mitochondrial Fe-S proteins in FRDA cardiomyocytes; assay type: cell-based, human; details: fasudil 1 μM, KD025 1 μM, ripasudil 0.5 μM
FRDA neurons = assay: Mitochondrial oxygen consumption rate (Agilent Seahorse XF Analyzer) in FRDA neurons; assay type: cell-based, human; details: small molecule ROCK1/2 inhibitor
Description: (§1) FIGS. 3A-D. Inhibition of protein kinase FXN-RFs can ameliorate characteristic mitochondrial defects of FRDA post-mitotic neurons and cardiomyocytes. (A, B) Quantification of flow cytometry analysis of normal and FRDA neurons (A) or normal and FRDA CMCs (B) expressing an FXN-RF shRNA and stained with MitoSOX. (C, D) Analysis of the mitochondrial oxygen consumption rate in normal and FRDA neurons (C) or normal and FRDA CMCs (D) expressing an FXN-RF shRNA. […] (C, D) Analysis of the mitochondrial oxygen consumption rate in FRDA neurons (C) or FRDA CMCs (D) treated with a small molecule ROCK1/2 inhibitor. (E, F) Immunoblot analysis showing levels of mitochondrial proteins ACO and ISCU in FRDA neurons (E) or FRDA CMCs (F) treated with fasudil (1 μM), KD025 (1 μM), or ripasudil (0.5 μM). […] We next asked whether FXN-RF inhibition could ameliorate two characteristic mitochondrial defects of FRDA neurons and cardiomyocytes: increased levels of reactive oxygen species (ROS) and decreased oxygen consumption. In the first set of experiments, FRDA neurons and cardiomyocytes expressing a protein kinase FXN-RF shRNA were stained with MitoSOX (an indicator of mitochondrial superoxide levels and mitochondrial ROS production) followed by flow cytometry analysis. As expected. FRDA neurons and cardiomyocytes had increased levels of mitochondrial ROS production compared to normal neurons and cardiomyocytes (FIGS. 3A, B). […] In the second set of experiments, we measured mitochondrial oxygen consumption rate, which is related to ATP production, using an Agilent Seahorse XF Analyzer. As expected, mitochondrial oxygen consumption rate in FRDA neurons and cardiomyocytes was ˜60% of the level observed in normal neurons and cardiomyocytes (FIGS. 3C, D).

FRDA cardiomyocytes = assay: Mitochondrial oxygen consumption rate (Agilent Seahorse XF Analyzer) in FRDA cardiomyocytes; assay type: cell-based, human; details: small molecule ROCK1/2 inhibitor
Description: as §1

ROCK1/2 = details: literature; cited from earlier work
ROCK1 = assay: qRT-PCR analysis monitoring ROCK1 expression (shRNA knockdown) in FRDA (GM23404) iPSCs; assay type: cell-based, human; details: FRDA (GM23404) iPSCs expressing the shRNA
Description: (§2) FIGS. 4A-E. Identification of ROCK2 as a protein kinase that mediates repression of the mutant FXN gene. (A) qRT-PCR analysis monitoring ROCK1 and ROCK2 expression in FRDA (GM23404) iPSCs expressing the two ROCK1 shRNAs used in the experiments shown in FIGS. 1-3 (hereafter called ROCK1-1 and ROCK1-2). […] (B) qRT-PCR analysis monitoring knockdown efficiencies of selective ROCK1 (ROCK1-3) and ROCK2 shRNAs.
(§3) Of the 8 new FXN-RFs that we identified, we are particularly enthusiastic about ROCK1, a serine-threonine kinase and major effector of the small GTPase RhoA (Schofield and Bernard, Crit Rev Biochem Mol Biol, 2013, 48 (4): 301-316. ROCK1 phosphory lates a variety of substrates, some of which can affect cell signaling pathways, such as PI3K/AKT (Ruth et al., J Invest Dermatol, 2006, 126 (4): 862-868), and transcription factors, such as NF-kB (Shimizu et al., Mol Hum Reprod, 2007, 13 (3): 181-187) and Runx2 (Huang et al., Exp Ther Med, 2018, 15 (5): 4457-4464). In addition to ROCK1, mammalian cells express another ROCK isoform encoded by a distinct gene, ROCK2. […] ROCK1 and ROCK2 share ˜65% overall amino acid identity and 92% identity in their kinase domains, with 100% identity within their ATP-binding pockets (Nakagawa et al., FEBS Lett, 1996, 392 (2): 189-193; Takahashi et al., Genomics, 1999, 55 (2): 235-237). […] Thus, both ROCK1 and ROCK2 are protein kinase FXN-RFs.

ROCK2 = assay: qRT-PCR analysis monitoring ROCK2 expression (shRNA knockdown) in FRDA (GM23404) iPSCs; assay type: cell-based, human; details: FRDA (GM23404) iPSCs expressing the shRNA
Description: as §2, §3

| Compound | FXN transcript levels (RNA-seq) (mutant FXN gene) | levels of ACO2 (ACO2 and ISCU [1]) | levels of ISCU (ACO2 and ISCU [1]) | levels of ACO2 (ACO2 and ISCU [2]) | levels of ISCU (ACO2 and ISCU [2]) | mitochondrial oxygen consumption rate (FRDA neurons) | mitochondrial oxygen consumption rate (FRDA cardiomyocytes) | oral activity (ROCK1/2) | tolerability / adverse effects (ROCK1/2) | ROCK1 expression (knockdown) (ROCK1) | ROCK2 expression (knockdown) (ROCK2) |
| --- | --- | --- | --- | --- | --- | --- | --- | --- | --- | --- | --- |
| CC(C)NC(=O)COc1cccc(-c2nc(Nc3ccc4[nH]ncc4c3)c3ccccc3n2)c1 [KD025] | Upregulation of the mutant FXN gene | increased levels of ACO2 and ISCU comparable to that observed in normal neurons and cardiomyocytes | increased levels of ACO2 and ISCU comparable to that observed in normal neurons and cardiomyocytes | increased levels of ACO2 and ISCU comparable to that observed in normal neurons and cardiomyocytes | increased levels of ACO2 and ISCU comparable to that observed in normal neurons and cardiomyocytes |  |  |  |  |  |  |
| C[C@@H](N)[C@H]1CC[C@H](C(=O)Nc2ccncc2)CC1.Cl.Cl [Y27632, (+)-(R)-trans-4-(1-aminoethyl)-N-(4-pyridyl)cyclohexanecarboxamide dihydrochloride] |  |  |  |  |  | increased mitochondrial oxygen consumption rate | increased mitochondrial oxygen consumption rate |  |  |  |  |
| O=S(=O)(c1cccc2cnccc12)N1CCCNCC1 [fasudil, 1-(5-isoquinolinesulfonyl)-homopiperazine] | Upregulation of the mutant FXN gene | increased levels of ACO2 and ISCU comparable to that observed in normal neurons and cardiomyocytes | increased levels of ACO2 and ISCU comparable to that observed in normal neurons and cardiomyocytes | increased levels of ACO2 and ISCU comparable to that observed in normal neurons and cardiomyocytes | increased levels of ACO2 and ISCU comparable to that observed in normal neurons and cardiomyocytes | increased mitochondrial oxygen consumption rate | increased mitochondrial oxygen consumption rate | orally active | well tolerated without adverse effects |  |  |
| C[C@H]1CNCCCN1S(=O)(=O)c1cccc2cncc(F)c12 [ripasudil, 4-fluoro-5-[[(2S)-2-methyl-1,4-diazepan-1-yl]sulfonyl]isoquinoline] |  | increased levels of ACO2 and ISCU comparable to that observed in normal neurons and cardiomyocytes | increased levels of ACO2 and ISCU comparable to that observed in normal neurons and cardiomyocytes | increased levels of ACO2 and ISCU comparable to that observed in normal neurons and cardiomyocytes | increased levels of ACO2 and ISCU comparable to that observed in normal neurons and cardiomyocytes | increased mitochondrial oxygen consumption rate | increased mitochondrial oxygen consumption rate | orally active | well tolerated without adverse effects |  |  |
| ROCK1-1: ROCK1 shRNA (1), SEQ ID NO: 11; knocks down both ROCK1 and ROCK2 (CCGGCGGGTTGTTCAGATTGAGAAACTCGAGTTTCTCAATCTGAACAACCCGTTTTTG) |  |  |  |  |  |  |  |  |  | knocked down both ROCK1 and ROCK2 | knocked down both ROCK1 and ROCK2 |
| ROCK1-2: ROCK1 shRNA (2), SEQ ID NO: 12; knocks down both ROCK1 and ROCK2 (CCGGGCATTCCAAGATGATCGTTATCTCGAGATAACGATCATCTTGGAATGCTTTTTG) |  |  |  |  |  |  |  |  |  | knocked down both ROCK1 and ROCK2 | knocked down both ROCK1 and ROCK2 |
| ROCK1-3: selective ROCK1 shRNA (3), SEQ ID NO: 13 (CCGGGCACCAGTTGTACCCGATTTACTCGAGTAAATCGGGTACAACTGGTGCTTTTTG) |  |  |  |  |  |  |  |  |  | knocked down ROCK1 | knocked down ROCK1 but not ROCK2 |
| ROCK2 shRNA: selective ROCK2 shRNA, SEQ ID NO: 14 (CCGGGCACCAGTTGTACCCGATTTACTCGAGTAAATCGGGTACAACTGGTGCTTTTTG) |  |  |  |  |  |  |  |  |  | knocked down ROCK2 but not ROCK1 | knocked down ROCK2 |
